Data published in US6444691B1, “1,3-disubstituted ureas as ACAT inhibitors, and method of preparing thereof” (Solvakofarma, a.s., priority 1997, dated 2002).

Tests used:
[1] = test system: rat liver ACAT (acylCoa:cholesterol acyltransferase); test: In vitro inhibition of ACAT activity, rat liver microsomal fraction; assay type: biochemical; details: rat liver microsomes, concentration 2 μM, versus enzyme activity in 1% dimethylsulfoxide
Method: (§1) The biological activity of the substances was evaluated based on the in vitro inhibition of acylCoa:cholesterol acyltransferase (ACAT) activity. The enzyme was obtained from the microsomal fraction of rat liver cells and rabbit intestinal mucosa of animals fed with cholesterol. The substrates for the enzyme reaction included exogenous oleoyl co-enzyme A and endogenous cholesterol. ^14C-oleoyl co-enzyme A conversion to ^14C-cholesteryl oleate was monitored. From the mixture of extracted lipids, cholesteryl oleate was separated using thin-layer chromatography, and was quantified radiometrically. ACAT specific activity was expressed as the amount of cholesteryl oleate formed per minute per mg microsomal protein.
(§2) Efficiency was calculated as compared to enzyme activity measured in the presence of 1% dimethylsulfoxide used as the solvent to prepare solutions of the substances tested.

[2] = test system: rabbit intestinal mucosa ACAT (acylCoa:cholesterol acyltransferase); test: In vitro inhibition of ACAT activity, rabbit intestinal mucosa microsomal fraction; assay type: biochemical; details: rabbit intestinal mucosa microsomes, concentration 2 μM, versus enzyme activity in 1% dimethylsulfoxide
Method: as §1, §2

SMILES | Efficiency (%) liver (ACAT inhibition) [1] | Efficiency (%) mucosa (ACAT inhibition) [2]
Cc1ccccc1NC(=O)Nc1ccc(Sc2ccc([N+](=O)[O-])cc2)cc1 [Example 37, 1-(2-Methylphenyl)-3-((4′-nitrophenylthio)-phenyl)-urea] | 27% | 31%
Cc1ccc(NC(=O)Nc2ccc(Sc3ccc([N+](=O)[O-])cc3)cc2)cc1 [Example 38, 1-(4-Methylphenyl)-3-((4′-nitrophenylthio)-phenyl)-urea] | 21% | 32%
Cc1cc(C)cc(NC(=O)Nc2ccc(Sc3ccc([N+](=O)[O-])cc3)cc2)c1 [Example 41, 1-(3,5-Dimethylphenyl)-3-((4′-nitrophenylthio)-phenyl)-urea] | 18% | 27%
CC(C)c1cccc(C(C)C)c1NC(=O)Nc1ccc(Sc2ccc([N+](=O)[O-])cc2)cc1 [Example 42] | 88% | 71%
O=C(Nc1ccc(Sc2ccc([N+](=O)[O-])cc2)cc1)Nc1ccccc1C(F)(F)F [Example 43, 1-(2-Trifluoromethylphenyl)-3-((4′-nitrophenylthio)-phenyl)-urea] | 25% | 38%
O=C(Nc1ccc(Sc2ccc([N+](=O)[O-])cc2)cc1)Nc1ccc(C(F)(F)F)cc1 [Example 45, 1-(4-Trifluoromethylphenyl)-3-((4′-nitrophenylthio)-phenyl)-urea] | 23% | 25%
O=C(Nc1ccc(Sc2ccc([N+](=O)[O-])cc2)cc1)Nc1ccccn1 [Example 46, 1-(2-Pyridyl)-3-((4′-nitrophenylthio)-phenyl)-urea] | 48% | 46%
O=C(Nc1ccc(Sc2ccc([N+](=O)[O-])cc2)cc1)Nc1cccnc1 [Example 47, 1-(3-Pyridyl)-3-((4′-nitrophenylthio)-phenyl)-urea] | 45% | 36%
O=C(Nc1ccncc1)Nc1ccc(Sc2ccc([N+](=O)[O-])cc2)cc1 [Example 48, 1-(4-Pyridyl)-3-((4′-nitrophenylthio)-phenyl)-urea] | 53% | 35%
O=C(Nc1ccc(Sc2ccc([N+](=O)[O-])cc2)cc1)Nc1cccc2ccccc12 [Example 49, 1-(1-Naphthyl)-3-((4′-nitrophenylthio)-phenyl)-urea] | 24% | 36%
O=C(Nc1ccc(Sc2ccc([N+](=O)[O-])cc2)cc1)Nc1ccc2ccccc2c1 [Example 50, 1-(2-Naphthyl)-3-((4′-nitrophenylthio)-phenyl)-urea] | 16% | 31%
O=C(Nc1ccc(Sc2ccc([N+](=O)[O-])cc2)cc1)NC12CC3CC(CC(C3)C1)C2 [Example 51, 1-(1-Adamantyl)-3-((4′-nitrophenylthio)-phenyl)-urea] | 45% | 56%
Nc1ccc(Oc2ccc(NC(=O)Nc3ccc(F)cc3F)cc2)cc1 [Example 52, 1-(2,4-Difluorophenyl)-3-((4′-aminophenoxy)-phenyl)-urea] | 53% | 64%
Nc1ccc(Oc2ccc(NC(=O)Nc3cccc(Cl)c3Cl)cc2)cc1 [Example 53, 1-(2,3-Dichlorophenyl)-3-((4′-aminophenoxy)-phenyl)-urea] | 55% | 46%
Cc1cccc(C)c1NC(=O)Nc1ccc(Oc2ccc(N)cc2)cc1 [Example 54, 1-(2,6-Dimethylphenyl)-3-((4′-aminophenoxy)-phenyl)-urea] | 38% | 62%
CC(C)c1cccc(C(C)C)c1NC(=O)Nc1ccc(Oc2ccc(N)cc2)cc1 [Example 55, 1-(2,6-Di(methylethyl)-phenyl)-3-((4′-aminophenoxy)-phenyl)-urea] | 68% | 64%
Nc1ccc(Sc2ccc(NC(=O)Nc3ccc(F)cc3F)cc2)cc1 [Example 56, 1-(2,4-Difluorophenyl)-3-((4′-aminophenylthio)-phenyl)-urea] | 22% | 25%
Nc1ccc(Sc2ccc(NC(=O)Nc3cccc(Cl)c3Cl)cc2)cc1 [Example 57, 1-(2,3-Dichlorophenyl)-3-((4′-aminophenylthio)-phenyl)-urea] | 15% | 26%
Cc1cccc(C)c1NC(=O)Nc1ccc(Sc2ccc(N)cc2)cc1 [Example 58, 1-(2,6-Dimethylphenyl)-3-((4′-aminophenylthio)-phenyl)-urea] | 21% | 29%
CC(C)c1cccc(C(C)C)c1NC(=O)Nc1ccc(Sc2ccc(N)cc2)cc1 [Example 59] | 56% | 67%
